The text below walks through data of paper PMC9543391, “ERp57 chaperon protein protects neuronal cells from Aβ‐induced toxicity” (Journal of Neurochemistry, 2022).

Peptide text beside a SMILES is read from it.

The subject of data set [1] is AD 5XFAD mice model. The settings on record: activation of ERp57, cerebral cortex and hippocampus, ref Tohda et al., [2012]; cited from earlier work. From the text: ERp57 has been previously linked to key processes in neurodegeneration and particularly in AD pathogenesis.
Data set [2] has as its system tau. Also noted: method as in Xu et al., [2013]. As to conditions: within the cell; ref Xu et al., [2013]; cited from earlier work.
Data set [3] deals with ERp57 (human recombinant PDIA3) (human) (UniProt P30101). As to the kind of experiment: SPR; ERp57 immobilised by amine coupling on a COOH5 sensorchip (about 4000 RU), SensiQ Pioneer; non-aggregated Aβ25-35 injected for 240 s at 30 μl/min at 15.6 μM to 1.0 mM; 25°C; HBSP buffer (20 mM HEPES pH 7.4, 150 mM NaCl, 0.005% Tween-20); global kinetic fits with one or two binding sites (Qdat 4.0). (Surface plasmon resonance follows binding to a sensor surface in real time, without labels.)

For data set [4], the target named is T1, ERp57 (Homo sapiens, UniProt P30101).
T1 construct: made in house; host or cells: E. coli BL21, vector pET21
T1 sequence (P30101 25-505): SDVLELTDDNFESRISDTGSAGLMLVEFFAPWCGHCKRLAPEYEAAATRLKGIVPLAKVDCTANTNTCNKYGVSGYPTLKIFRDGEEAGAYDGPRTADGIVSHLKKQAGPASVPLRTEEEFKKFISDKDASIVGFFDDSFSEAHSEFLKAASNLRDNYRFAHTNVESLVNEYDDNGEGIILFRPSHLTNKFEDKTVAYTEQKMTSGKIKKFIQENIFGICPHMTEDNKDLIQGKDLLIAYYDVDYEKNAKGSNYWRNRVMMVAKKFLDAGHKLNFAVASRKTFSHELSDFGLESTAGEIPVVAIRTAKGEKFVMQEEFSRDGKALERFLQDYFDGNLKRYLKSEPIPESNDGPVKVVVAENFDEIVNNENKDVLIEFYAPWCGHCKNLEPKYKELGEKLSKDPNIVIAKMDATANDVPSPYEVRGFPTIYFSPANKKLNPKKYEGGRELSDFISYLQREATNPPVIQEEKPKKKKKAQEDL
Nature of the data set: Surface plasmon resonance, Aβ25−35 binding to immobilized ERp57. The settings on record: SPR, ERp57 on COOH5 sensorchip; global fitting with one binding site; non-aggregated Aβ25−35 15.6 μM–1.0 mM; HBSP buffer pH 7.4; 25°C; read-out: overall K D. From the text: Human recombinant PDIA3 was cloned and expressed in E. coli strain BL21 (Invitrogen™, catalog number C600003) using the expression vector pET21 (Novagen, catalog number 69770) as described by Coppari (Coppari et al., [2002]). The coding sequence for the second redox‐active domain (aʹ domain, residues 377–505) was amplified by PCR as previously described and cloned in the expression vector pET29 (Novagen) (Grillo et al., [2002]). Recombinant proteins were expressed in E. coli strain BL21 and purified by ammonium sulfate fractionation, ion exchange, and heparin chromatography (Grillo et al., [2006]). Protein purification was evaluated by SDS‐PAGE and concentration was determined spectrophotometrically (PDIA3 Ɛ280 reduced form = 44 810 M^−1 cm^−1, aʹ domain Ɛ280 reduced form = 14 400 M^−1 cm^−1). Rabbit anti‐ERp57 primary antibody will be shared upon reasonable request.
SPR experiments were performed with a SensiQ Pioneer apparatus. […] The amount of immobilized ERp57 was detected by mass concentration‐dependent changes in the refractive index on the sensorchip surface and corresponded to about 4000 resonance units (RU). […] Values of the plateau signal at steady‐state (Req) and full fittings with 1, 2, and 3 sites were calculated from kinetic evaluation of the sensorgrams using the Qdat 4.0 program.

The test system of data set [5] is SH‐SY5Y cells. As to the kind of experiment: MTT cell viability assay. It is filed as cell-based, human. The settings on record: Aβ25−35 aggregated with ERp57. On the procedure: For the cell viability experiments, 96‐well plates were seeded with 10 000 cells/well. After 24 h, cells were treated with 30 μM Aβ25−35 aggregated for 72 h in the presence or in the absence of 0.12 μM of ERp57 or GST recombinant proteins (in a 1:250 ratio), in a final volume of 150 μl per well. Plates were incubated for 24 h in an incubator at 37°C, 5% of CO2, and 99% RH. Thereafter, 20 μl of (3‐[4,5‐Dimethylthiazol‐2‐yl]‐2,5‐Diphenyltetrazolium Bromide) (MTT) dye (stock solution 5 mg/ml in PBS) (catalog number #M2003) was added to the wells and incubated for additional 2 h at 37°C and 5% CO2. Water‐insoluble formazan crystals were dissolved in 100 μl of DMSO (catalog number #472301). For spectrophotometric measurements, Appliscan® plate reader (Thermo scientific) was used at the wavelength 570 nm, with reference set at 690 nm.

As for `C[C@@H]1CC[C@@]2(OC1)O[C@H]1C[C@H]3[C@@H]4CC=C5C[C@@H](O)CC[C@]5(C)[C@H]4CC[C@]3(C)[C@H]1[C@@H]2C` [diosgenin], in data set [1], the “object recognition memory; amyloid plaques and neurofibrillary tangles” value was “significantly improves performance of object recognition memory and reduces amyloid plaques and neurofibrillary tangles”.
In the case of PDI: protein disulfide isomerase, the “effect on tau fibril formation” value in data set [2] was “able to reduce the formation of tau fibrils”.
Turning to “Amyloid beta peptide fragment 25-35 (Aβ25-35)”, in data set [3], the KD1 (fit with two binding sites, high-affinity site) came to 34 µM and the KD2 (fit with two binding sites, low-affinity site) was 3.3 mM.
`CC[C@H](C)[C@H](NC(=O)[C@H](C)NC(=O)CNC(=O)[C@H](CCCCN)NC(=O)[C@H](CC(N)=O)NC(=O)[C@H](CO)NC(=O)CN)C(=O)N[C@H](C(=O)NCC(=O)N[C@@H](CC(C)C)C(=O)N[C@@H](CCSC)C(=O)O)[C@@H](C)CC` [Aβ25−35] (H-GSNKGAIIGLM-OH): the Kd in data set [4] came out at 33 ± 2 µM. In data set [5], the “toxicity of Aβ25−35 bound by ERp57” value was “no longer leads to toxicity”.
